Results reported in patent US20100267561A1, “HERBICIDAL PYRIDAZINONE DERIVATIVES” (priority 2007, published 2010).

Assays:
Assay type in all cases: in vivo
[1] = tested on: bermudagrass (Cynodon dactylon); assay: Test B pre-/postemergence plant response
Method in brief: (§1)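 Preemergence and postemergence (plants 2-18 cm, 1- to 4-leaf stage) applications used test chemicals in a non-phytotoxic solvent with surfactant. Plants were held in a greenhouse 13 to 15 days, then rated visually against controls on a 0-100 scale (0 no effect, 100 complete control).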

[2] = tested on: catchweed bedstraw (Galium aparine); assay: Test B pre-/postemergence plant response; conditions: Preemergence
Method in brief: as §1

[3] = tested on: cocklebur (Xanthium strumarium); assay: Test B pre-/postemergence plant response
Method in brief: as §1

[4] = tested on: downy bromegrass (Bromus tectorum); assay: Test B pre-/postemergence plant response
Method in brief: as §1

[5] = tested on: large crabgrass (Digitaria sanguinalis); assay: Test B pre-/postemergence plant response
Method in brief: as §1

soybean (Glycine max) = assay: Test B pre-/postemergence plant response
Method in brief: as §1

[6] = tested on: velvetleaf (Abutilon theophrasti); assay: Test B pre-/postemergence plant response
Method in brief: as §1

[7] = tested on: wheat (Triticum aestivum); assay: Test B pre-/postemergence plant response
Method in brief: as §1

wild oat (Avena fatua) = assay: Test B pre-/postemergence plant response
Method in brief: as §1

[8] = tested on: woolly cupgrass (Eriochloa villosa); assay: Test B pre-/postemergence plant response
Method in brief: as §1

[9] = tested on: barnyardgrass (Echinochloa crus-galli); assay: Test B flooded paddy test plant response
Method in brief: (§2)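 Step one: raise plants to 2 leaves. Step two: flood pots 3 cm over the soil and apply compound into the water, keeping this depth. Step three: after 13–15 greenhouse days, score visually versus controls, 0–100, where 100 means complete control.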

[10] = tested on: ducksalad (Heteranthera limosa); assay: Test B flooded paddy test plant response
Method in brief: as §2

rice (Oryza sativa) = assay: Test B flooded paddy test plant response
Method in brief: as §2

[11] = tested on: umbrella sedge (Cyperus difformis); assay: Test B flooded paddy test plant response
Method in brief: as §2

[12] = 8 g ai/ha, postemergence, 0-100 scale
[13] = 16 g ai/ha, postemergence, 0-100 scale
[14] = Postemergence, 31 g ai/ha, scale 0 to 100
[15] = Postemergence, 62 g ai/ha, scale 0 to 100, 0 no effect, 100 complete control
[16] = Preemergence, 8 g ai/ha, scale 0 to 100 (0 no effect, 100 complete control)
[17] = Preemergence, 31 g ai/ha, scale 0 to 100 (0 no effect, 100 complete control)
[18] = Preemergence, 62 g ai/ha, 0 to 100 scale, 0 no effect, 100 complete control
[19] = Preemergence, 16 g ai/ha, scale 0 to 100
[20] = Flood (flooded paddy test), 125 g ai/ha, scale 0 to 100, 0 no effect, 100 complete control
[21] = Flood (flooded paddy test), 250 g ai/ha, scale 0 to 100, 0 no effect, 100 complete control
[22] = Flood, 31 g ai/ha, scale 0 to 100
[23] = Flood, 62 g ai/ha, scale 0 to 100

## CCc1c(C)c(-c2ccc(Br)cc2)nn1-c1c(O)cnn(C)c1=O [Compound 83]
[1]; [12]
  Bermudagrass plant response rating: 40
[1]; [13]
  Bermudagrass plant response rating: 65
[1]; [14]
  Plant response rating, Bermudagrass: 85
[1]; [15]
  Plant response rating, Bermudagrass: 90
[1]; [16]
  Bermudagrass plant response rating: 55
[1]; Preemergence, 16 g ai/ha, scale 0 to 100 (0 no effect, 100 complete control)
  Bermudagrass plant response rating: 65
[1]; [17]
  Plant response rating, Bermudagrass: 100
[1]; [18]
  Plant response rating, Bermudagrass: 100
[2]; 8 g ai/ha, scale 0 to 100 (0 no effect, 100 complete control)
  Galium plant response rating: 0
[2]; 31 g ai/ha, scale 0 to 100 (0 no effect, 100 complete control)
  Plant response rating, Galium: 0
[2]; 62 g ai/ha, 0 to 100 scale, 0 no effect, 100 complete control
  Plant response rating, Galium: 0
[2]; 16 g ai/ha, scale 0 to 100
  Galium plant response rating: 0
[3]; [12]
  Cocklebur plant response rating: 0
[3]; [13]
  Cocklebur plant response rating: 0
[3]; [14]
  Plant response rating, Cocklebur: 0
[3]; [15]
  Plant response rating, Cocklebur: 0
[3]; [16]
  Cocklebur plant response rating: 0
[3]; [17]
  Plant response rating, Cocklebur: 0
[3]; [18]
  Plant response rating, Cocklebur: 0
[3]; [19]
  Cocklebur plant response rating: 0
[4]; [12]
  Bromegrass, Downy plant response rating: 10
[4]; [13]
  Bromegrass, Downy plant response rating: 55
[4]; [14]
  Plant response rating, Bromegrass, Downy: 75
[4]; [15]
  Plant response rating, Bromegrass, Downy: 85
[4]; [16]
  Bromegrass, Downy plant response rating: 0
[4]; [17]
  Plant response rating, Bromegrass, Downy: 20
[4]; [18]
  Plant response rating, Bromegrass, Downy: 30
[4]; [19]
  Bromegrass, Downy plant response rating: 0
[5]; [12]
  Crabgrass, Large plant response rating: 80
[5]; [13]
  Crabgrass, Large plant response rating: 95
[5]; [14]
  Plant response rating, Crabgrass, Large: 100
[5]; [15]
  Plant response rating, Crabgrass, Large: 100
[5]; [16]
  Crabgrass, Large plant response rating: 0
[5]; [17]
  Plant response rating, Crabgrass, Large: 85
[5]; [18]
  Plant response rating, Crabgrass, Large: 100
[5]; [19]
  Crabgrass, Large plant response rating: 35
Soybean (Glycine max); [12]
  Soybean plant response rating: 0
Soybean (Glycine max); [13]
  Soybean plant response rating: 0
Soybean (Glycine max); [14]
  Plant response rating, Soybean: 0
Soybean (Glycine max); [15]
  Plant response rating, Soybean: 0
Soybean (Glycine max); [16]
  Soybean plant response rating: 0
Soybean (Glycine max); [17]
  Plant response rating, Soybean: 0
Soybean (Glycine max); [18]
  Plant response rating, Soybean: 0
Soybean (Glycine max); [19]
  Soybean plant response rating: 0
[6]; [12]
  Velvetleaf plant response rating: 0
[6]; [13]
  Velvetleaf plant response rating: 0
[6]; [14]
  Plant response rating, Velvetleaf: 0
[6]; [15]
  Plant response rating, Velvetleaf: 20
[6]; [16]
  Velvetleaf plant response rating: 0
[6]; [17]
  Plant response rating, Velvetleaf: 0
[6]; [18]
  Plant response rating, Velvetleaf: 0
[6]; [19]
  Velvetleaf plant response rating: 0
[7]; [12]
  Wheat plant response rating: 40
[7]; [13]
  Wheat plant response rating: 55
[7]; [14]
  Plant response rating, Wheat: 90
[7]; [15]
  Plant response rating, Wheat: 95
[7]; [16]
  Wheat plant response rating: 0
[7]; [17]
  Plant response rating, Wheat: 0
[7]; [18]
  Plant response rating, Wheat: 20
[7]; [19]
  Wheat plant response rating: 0
Wild oat (Avena fatua); [12]
  Oat, Wild plant response rating: 98
Wild oat (Avena fatua); [13]
  Oat, Wild plant response rating: 100
Wild oat (Avena fatua); [14]
  Plant response rating, Oat, Wild: 100
Wild oat (Avena fatua); [15]
  Plant response rating, Oat, Wild: 100
Wild oat (Avena fatua); [16]
  Oat, Wild plant response rating: 0
Wild oat (Avena fatua); [17]
  Plant response rating, Oat, Wild: 80
Wild oat (Avena fatua); [18]
  Plant response rating, Oat, Wild: 85
Wild oat (Avena fatua); [19]
  Oat, Wild plant response rating: 30
[8]; [12]
  Cupgrass, Woolly plant response rating: 65
[8]; [13]
  Cupgrass, Woolly plant response rating: 95
[8]; [14]
  Plant response rating, Cupgrass, Woolly: 98
[8]; [15]
  Plant response rating, Cupgrass, Woolly: 100
[8]; [16]
  Cupgrass, Woolly plant response rating: 65
[8]; [17]
  Plant response rating, Cupgrass, Woolly: 100
[8]; [18]
  Plant response rating, Cupgrass, Woolly: 100
[8]; [19]
  Cupgrass, Woolly plant response rating: 90
[9]; [20]
  Plant response rating, Barnyardgrass: 0
[9]; [21]
  Plant response rating, Barnyardgrass: 0
[9]; [22]
  Plant response rating, Barnyardgrass: 0
[9]; [23]
  Plant response rating, Barnyardgrass: 0
[10]; [20]
  Plant response rating, Ducksalad: 0
[10]; [22]
  Plant response rating, Ducksalad: 0
[10]; [23]
  Plant response rating, Ducksalad: 0
Rice (Oryza sativa); [20]
  Plant response rating, Rice: 0
Rice (Oryza sativa); [21]
  Plant response rating, Rice: 0
Rice (Oryza sativa); [22]
  Plant response rating, Rice: 0
Rice (Oryza sativa); [23]
  Plant response rating, Rice: 0
[11]; [20]
  Plant response rating, Sedge, Umbrella: 0
[11]; [21]
  Plant response rating, Sedge, Umbrella: 0
[11]; [22]
  Plant response rating, Sedge, Umbrella: 0
[11]; [23]
  Plant response rating, Sedge, Umbrella: 0
